Test results published in US20230414476A1, “TETRAPEPTIDE AND COMPOSITIONS COMPRISING TETRAPEPTIDES” (THE BOOTS COMPANY, priority 2020, published 2023).

Legend:
Collagen IV = experiment: ELISA of collagen IV in culture supernatant of human dermal fibroblasts; type: cell-based; details: normal human dermal fibroblasts, 72 hours, weighted to viable cells
Protocol: (§1) An ELISA is an immunological assay commonly used to measure presence and abundance of a specific proteins (antibodies, antigens, proteins and glycoproteins) in biological samples. In this case ELISAs are being used to quantify the expression of dermal extracellular proteins collagen-1, decorin, fibronectin and collagen IV. The quantity of collagen I is evaluated via the quantity of PIP (“carboxU-terminal pro-peptide of procollagen type I”) which is a peptide fragment resulting from the enzymatic degradation of procollagen present outside the fibroblast in the culture supernatant medium.
(§2) Normal human dermal fibroblasts cells (HDFs) were cultured in contact with the tetrapeptides of the present invention, or composition without the peptide (negative control), for 72 hours. Thereafter the cultured supernatants were removed, and the quantity of dermal extracellular proteins determined using an ELISA assay for the protein of interest. For the ELISA quantification, cell viability was calculated using Hoechst staining allowing the quantity of dermal proteins to be weighted to the number of viable cells.
(§3) The effect of XXGD tetrapeptides on ECM protein expression by fibroblasts as measured by ELISA (columns 1 to 2) versus a tetrapeptide not conforming to the XXGD structure (column 3) are presented in the table below (table 1). Results are expressed as % increase or decrease versus the negative control.

Decorin = experiment: ELISA of decorin in culture supernatant of human dermal fibroblasts; type: cell-based; details: normal human dermal fibroblasts, 72 hours, weighted to viable cells
Protocol: as §1, §2, §3

Collagen I (PIP) = experiment: ELISA of collagen I (via PIP) in culture supernatant of human dermal fibroblasts; type: cell-based; details: normal human dermal fibroblasts, 72 hours, weighted to viable cells
Protocol: as §1, §2
The quantity of collagen I is evaluated using the quantity of PIP (“carboxU-terminal pro-peptide of procollagen type I”) which is a peptide fragment resulting from the enzymatic degradation of procollagen present outside the fibroblast in the culture supernatant medium.
as §3

Fibrillin-1 = experiment: Immunofluorescence of Fibrillin-1 expression by HDF cells; type: cell-based, human; details: primary HDF cells, 5 days
Protocol: Immunofluorescence relies on the use of antibodies to label a specific protein with a fluorescent dye such as fluorescein isothiocyanate (FITC). In the following experiments, indirect immunofluorescence is used where a primary antibody first recognises and attaches to the specific protein, in this case fibrillin-1, and then a secondary antibody conjugated with FITC directed against the primary antibody is used for detection.
Fibrillin-1 expression was determined using immunofluorescence. Primary human dermal fibroblast (HDF) cells were purchased from Promo Cell and came from a donor. Cells were grown in wells of 96 well black walled clear bottomed plates (Peirce, Thermo Fisher). Cells were cultured in HDF media (PromoCell) supplemented with Basic Fibroblast Growth Factor (recombinant human), 1 ng/ml and Insulin 5 μg/ml. […]
The antibody binding to Fibrillin-1 fibres was visualised using a Nikon Eclipse 100 microscope fluorescence setting using an excitation lens for fluorescein isothiocyanate (FITC). […] ImageJ software was used to quantify the Fibrillin-1 fibre abundance and coverage in each image using a threshold of 235 measuring the fibre density.
Results are expressed as a percentage increase in fibrillin abundance compared to untreated control. […]

Fibronectin = experiment: ELISA of fibronectin in culture supernatant of human dermal fibroblasts; type: cell-based; details: normal human dermal fibroblasts, 72 hours, weighted to viable cells
Protocol: as §1, §2, §3

## Pal-AKGD-OH
Collagen IV; peptide 15 ppm
  Collagen IV expression, % increase or decrease versus the negative control: +40%
Decorin; peptide 15 ppm
  Decorin expression, % increase or decrease versus the negative control: +39%
Collagen I (PIP); peptide 15 ppm
  Collagen I (PIP) expression, % increase or decrease versus the negative control: +26%
Fibrillin-1; peptide 4 ppm (concentration with highest yield)
  Fibrillin-1, percentage increase in fibrillin abundance compared to untreated control: +116%
Fibronectin; peptide 15 ppm
  Fibronectin expression, % increase or decrease versus the negative control: +112%

## Pal-EKGD-OH
Collagen IV; peptide 12.5 ppm
  Collagen IV expression, % increase or decrease versus the negative control: +73%
Decorin; peptide 12.5 ppm
  Decorin expression, % increase or decrease versus the negative control: +43%
Collagen I (PIP); peptide 12.5 ppm
  Collagen I (PIP) expression, % increase or decrease versus the negative control: +101%
Fibronectin; peptide 12.5 ppm
  Fibronectin expression, % increase or decrease versus the negative control: +114%

## Pal-GYIL-OH [reference compound]
Collagen IV; peptide 15 ppm
  Collagen IV expression, % increase or decrease versus the negative control: +6%
Decorin; peptide 15 ppm
  Decorin expression, % increase or decrease versus the negative control: −13%
Collagen I (PIP); peptide 15 ppm
  Collagen I (PIP) expression, % increase or decrease versus the negative control: +18%
Fibrillin-1; peptide 10 ppm (concentration with highest yield)
  Fibrillin-1, percentage increase in fibrillin abundance compared to untreated control: +3%
Fibronectin; peptide 15 ppm
  Fibronectin expression, % increase or decrease versus the negative control: −38%
